These results are taken from article PMC8372318, “Automated affinity selection for rapid discovery of peptide binders” (Chemical Science, 2021).

Test [1] has as its target T1, recombinant menin protein (Homo sapiens, UniProt O00255).
T1 sequence (O00255 1-610): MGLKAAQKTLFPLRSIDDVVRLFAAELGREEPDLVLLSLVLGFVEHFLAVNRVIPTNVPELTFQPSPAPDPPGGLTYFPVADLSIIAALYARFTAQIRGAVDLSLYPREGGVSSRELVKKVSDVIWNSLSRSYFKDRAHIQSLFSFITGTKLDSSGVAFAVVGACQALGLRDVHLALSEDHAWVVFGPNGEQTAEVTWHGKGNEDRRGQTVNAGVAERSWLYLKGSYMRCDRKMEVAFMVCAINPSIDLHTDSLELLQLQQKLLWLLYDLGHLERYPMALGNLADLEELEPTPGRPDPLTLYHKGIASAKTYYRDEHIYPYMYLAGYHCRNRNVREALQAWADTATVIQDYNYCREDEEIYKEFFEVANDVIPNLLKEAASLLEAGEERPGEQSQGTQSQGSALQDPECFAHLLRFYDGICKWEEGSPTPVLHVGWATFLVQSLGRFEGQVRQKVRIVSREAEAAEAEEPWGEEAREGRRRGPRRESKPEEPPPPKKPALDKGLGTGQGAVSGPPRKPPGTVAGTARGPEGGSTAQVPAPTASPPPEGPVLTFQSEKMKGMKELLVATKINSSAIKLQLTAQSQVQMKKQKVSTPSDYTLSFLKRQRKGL
Kind of test: Bio-layer interferometry peptide-binding validation (Octet RED96). A general note: In BLI a coated tip is dipped into the sample, and binding shifts an interference pattern.

The target of test [2] is human ACE2 (Homo sapiens, UniProt Q9BYF1). The class given is binding. To be noted: highest tested peptide concentration 1000 nM; also biosensor alone.
Sequence of human ACE2 (Q9BYF1 18-805): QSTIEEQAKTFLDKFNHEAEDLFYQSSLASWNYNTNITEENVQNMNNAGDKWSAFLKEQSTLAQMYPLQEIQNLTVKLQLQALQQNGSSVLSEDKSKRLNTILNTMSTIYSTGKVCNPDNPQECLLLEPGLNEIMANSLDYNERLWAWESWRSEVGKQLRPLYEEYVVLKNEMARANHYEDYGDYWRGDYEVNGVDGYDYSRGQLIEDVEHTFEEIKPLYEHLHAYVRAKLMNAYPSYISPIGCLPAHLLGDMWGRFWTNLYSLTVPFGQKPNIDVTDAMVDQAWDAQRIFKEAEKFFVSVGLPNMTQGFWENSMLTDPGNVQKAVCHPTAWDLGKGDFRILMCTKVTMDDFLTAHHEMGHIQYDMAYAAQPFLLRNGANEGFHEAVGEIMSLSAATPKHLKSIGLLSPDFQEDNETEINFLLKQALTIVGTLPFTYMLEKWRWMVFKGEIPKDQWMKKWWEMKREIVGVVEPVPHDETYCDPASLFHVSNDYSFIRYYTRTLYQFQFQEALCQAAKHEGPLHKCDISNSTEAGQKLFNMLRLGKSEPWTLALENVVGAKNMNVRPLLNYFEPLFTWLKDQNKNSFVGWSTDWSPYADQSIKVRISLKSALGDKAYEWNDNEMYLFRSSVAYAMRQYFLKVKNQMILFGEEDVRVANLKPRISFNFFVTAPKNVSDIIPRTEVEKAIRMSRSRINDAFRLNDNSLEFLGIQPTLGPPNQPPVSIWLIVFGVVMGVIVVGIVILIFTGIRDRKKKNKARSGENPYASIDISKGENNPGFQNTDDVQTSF
Test [3] addresses T2, tMBM3 (truncated MLL menin binding motif) (Homo sapiens, also: additional C-terminal Arg).
T2 chain: RFPARPR
Kind of test: BLI.

As a reminder, the Kd is the equilibrium constant for the complex coming apart.

Square brackets hold non-standard residues; d marks the D form. Ends that are not written are not given here. Peptide text beside a SMILES is read from it. * marks the point of attachment. Biotin = O=C1N[C@H]2[C@H](CS[C@H]2CCCCC(=O)*)N1; Phe(4-CH2NH2) = NCc1ccc(C[C@H](N)C(=O)O)cc1; Arg(Me2s) = CN=C(NC)NCCC[C@H](N)C(=O)O; hArg = N=C(N)NCCCC[C@H](N)C(=O)O; Cha = N[C@@H](CC1CCCCC1)C(=O)O; Lys(Me) = CNCCCC[C@H](N)C(=O)O; Cba = N[C@@H](CC1CCC1)C(=O)O; PEG4 = NCCOCCOCCOCCOCCC(=O)O; Pip = O=C(O)[C@@H]1CCCCN1; Dab = NCC[C@H](N)C(=O)O A value given as a limit tells only on which side of the number the result lay.

Regarding `C[C@H](NC(=O)[C@@H]1CCCN1C(=O)[C@H](Cc1ccccc1)NC(=O)[C@H](CCCNC(=N)N)NC(=O)[C@H](Cc1c[nH]c2ccccc12)NC(=O)[C@@H](N)CCCNC(=N)N)C(=O)N[C@@H](CCCNC(=N)N)C(=O)N1CCC[C@H]1C(N)=O` [MBM1, reference compound] (H-RWRFPARP-NH2), the Kd in test [1] was found to be 30 nM. As to `CC(C)[C@H](NC(=O)[C@@H]1CCCCN1C(=O)[C@H](CC1CCC1)NC(=O)[C@H](CCCNC(=N)N)NC(=O)CCOCCOCCOCCOCCNC(=O)CCCC[C@@H]1SC[C@@H]2NC(=O)N[C@@H]21)C(=O)N[C@@H](CCCNC(=N)N)C(=O)N1CCCC[C@H]1C(=O)N[C@@H](CCCNC(=N)N)C(N)=O` [hit 1] ({Biotin-PEG4}-R[Cba][Pip]VR[Pip]R-NH2), the Kd in test [1] was determined as 34 nM. On the same count and under the same terms, in the case of `CN=C(NC)NCCC[C@H](NC(=O)[C@@H](NC(=O)[C@@H]1CCCCN1C(=O)[C@H](CC1CCCCC1)NC(=O)[C@H](CCCCN)NC(=O)CCOCCOCCOCCOCCNC(=O)CCCC[C@@H]1SC[C@@H]2NC(=O)N[C@@H]21)C(C)C)C(=O)N1CCCC[C@H]1C(=O)N[C@@H](CCCNC(=N)N)C(N)=O` [hit 6-1] ({Biotin-PEG4}-K[Cha][Pip]V[Arg(Me2s)][Pip]R-NH2) it was 20 nM.

Consider `CC(C)[C@H](NC(=O)[C@@H]1CCCCN1C(=O)[C@H](CC1CCCCC1)NC(=O)[C@H](CCN)NC(=O)CCOCCOCCOCCOCCNC(=O)CCCC[C@@H]1SC[C@@H]2NC(=O)N[C@@H]21)C(=O)N[C@@H](CCCNC(=N)N)C(=O)N1CCCC[C@H]1C(=O)N[C@@H](Cc1ccc(CN)cc1)C(N)=O` [hit 6-2] ({Biotin-PEG4}-[Dab][Cha][Pip]VR[Pip][Phe(4-CH2NH2)]-NH2), for which, in test [1], the Kd was determined as 45 nM. For `CC(C)[C@H](NC(=O)[C@@H]1CCCCN1C(=O)[C@H](CC1CCCCC1)NC(=O)[C@H](CCN)NC(=O)CCOCCOCCOCCOCCNC(=O)CCCC[C@@H]1SC[C@@H]2NC(=O)N[C@@H]21)C(=O)N[C@@H](CCCCNC(=N)N)C(=O)N1CCCC[C@H]1C(=O)N[C@@H](CCCNC(=N)N)C(N)=O` [hit 6-3] ({Biotin-PEG4}-[Dab][Cha][Pip]V[hArg][Pip]R-NH2), the Kd in test [1] stood at 34 nM.

On to `CNCCCC[C@H](NC(=O)[C@@H](NC(=O)[C@@H]1CCCCN1C(=O)[C@H](CC1CCCCC1)NC(=O)[C@H](CCCCN)NC(=O)CCOCCOCCOCCOCCNC(=O)CCCC[C@@H]1SC[C@@H]2NC(=O)N[C@@H]21)C(C)C)C(=O)N1CCCC[C@H]1C(=O)N[C@@H](CCCNC(=N)N)C(N)=O` [hit 6-4] ({Biotin-PEG4}-K[Cha][Pip]V[Lys(Me)][Pip]R-NH2), for which the Kd in test [1] turned out to be 87 nM.

Turning to `CNCCCC[C@H](NC(=O)[C@@H](NC(=O)[C@@H]1CCCCN1C(=O)[C@H](CC1CCCCC1)NC(=O)[C@H](Cc1c[nH]cn1)NC(=O)CCOCCOCCOCCOCCNC(=O)CCCC[C@@H]1SC[C@@H]2NC(=O)N[C@@H]21)C(C)C)C(=O)N1CCCC[C@H]1C(=O)N[C@@H](CCCNC(=N)N)C(N)=O` [hit 6-5] ({Biotin-PEG4}-H[Cha][Pip]V[Lys(Me)][Pip]R-NH2), the Kd in test [1] came to 110 nM.

On to `CC(C)[C@H](NC(=O)[C@@H]1CCCCN1C(=O)[C@H](CC1CCCCC1)NC(=O)[C@H](CCCNC(=N)N)NC(=O)CCOCCOCCOCCOCCNC(=O)CCCC[C@@H]1SC[C@@H]2NC(=O)N[C@@H]21)C(=O)N[C@@H](CCCNC(=N)N)C(=O)N1CCCC[C@H]1C(=O)N[C@@H](CCCNC(=N)N)C(N)=O` [hit 6] ({Biotin-PEG4}-R[Cha][Pip]VR[Pip]R-NH2), for which the equilibrium dissociation constant (Kd) in test [1] was determined as 40 nM. Turning to `C[C@H](NC(=O)[C@@H]1CCCN1C(=O)[C@H](Cc1ccccc1)NC(=O)[C@H](CCCNC(=N)N)NC(=O)[C@H](Cc1c[nH]c2ccccc12)NC(=O)[C@@H](N)CCCNC(=N)N)C(=O)N[C@@H](CCCNC(=N)N)C(=O)N1CCC[C@H]1C(=O)N[C@@H](CCCNC(=N)N)C(N)=O` [tMBM1] (H-RWRFPARPR-NH2), in test [1], the Kd came out at 14 nM. Take `C[C@H](NC(=O)[C@@H]1CCCN1C(=O)[C@H](Cc1ccccc1)NC(=O)[C@H](CCCNC(=N)N)NC(=O)[C@H](Cc1c[nH]c2ccccc12)NC(=O)CCOCCOCCOCCOCCNC(=O)CCCC[C@@H]1SC[C@@H]2NC(=O)N[C@@H]21)C(=O)N[C@@H](CCCNC(=N)N)C(=O)N1CCC[C@H]1C(=O)N[C@@H](CCCNC(=N)N)C(N)=O` [tMBM2] ({Biotin-PEG4}-WRFPARPR-NH2): the Kd in test [1] is 67 nM. Regarding `C[C@H](NC(=O)[C@@H]1CCCN1C(=O)[C@H](Cc1ccccc1)NC(=O)[C@H](CCCNC(=N)N)NC(=O)CCOCCOCCOCCOCCNC(=O)CCCC[C@@H]1SC[C@@H]2NC(=O)N[C@@H]21)C(=O)N[C@@H](CCCNC(=N)N)C(=O)N1CCC[C@H]1C(=O)N[C@@H](CCCNC(=N)N)C(N)=O` [tMBM3] ({Biotin-PEG4}-RFPARPR-NH2), in test [1], the “KD (nM), apparent dissociation constant” value is listed as 3800 nM and the Kd was more than 3800 nM. Take YPYDVPDYAK [HA tag]: in test [2], the “capture by control protein” value was “not captured”.

B1: menin (protein)
chain: T1 sequence (O00255 1-610)
B1 registered a dissociation constant (Kd) in test [3] of more than 3800 nM.
